Test results published in patent US10222390B2, “Near-infrared fluorescent sensors for biological amines” (The Curators of the University of Missouri, priority 2015, dated 2019).
Several values for one entry are separate records, joined by “and”; a condition that tells them apart may be missing. Equal entries are not always repeated.

Experiments:
[1] = Spectral characteristics of sensors (absorption, emission, Stokes shift); type: physicochemical
Experimental: (§1) NeuroSensor 715 was screened with various relevant amines via absorption and fluorescence spectroscopy. Steady-state fluorescence spectroscopic studies were performed using a Horiba Scientific Fluorolog-3 Model FL3C-111 spectrofluorometer and data was collected and analyzed using HJY FluorEssence™ 3.5.1.20 software package. UV-visible spectra were recorded on a Varian Cary 1E UV-visible spectrophotometer at 37° C.
(§2) A 1 mg/mL stock solution of NeuroSensor 715 in DMSO was prepared. A stock solution of NeuroSensor 715 and derivatives in buffer (2×10^−5 M, 25 mM HEPES, 50 mM Na2S2O3, pH 5.0) was prepared. Serotonin, norepinephrine, dopamine, and glutamate stock solutions were prepared by separately dissolving the analytes at the concentration to be used in the titrations with the buffered stock solution of NeuroSensor 715 (thus avoiding dilution of NeuroSensor 715 during the experiment). NeuroSensor 715 was titrated with aliquots of the analyte solution. NeuroSensor 715 derivatives were excited at 559 nm. The slit width was 10 nm for both excitation and emission.

[2] = in vitro; cited from earlier work
[3] = Fluorescence/absorbance titration of NS715 with norepinephrine; type: binding
Experimental: as §1, §2

[4] = Fluorescence/absorbance titration of NS715 with glutamate; type: binding
Experimental: as §1, §2

[5] = Fluorescence/absorbance titration of NS715 with serotonin; type: binding
Experimental: as §1, §2
NeuroSensor 715 binds to all primary amines via iminium ion formation, which produces a red shift in absorption from 500 to 546 nm (FIG. 6 (A)). In fluorescence mode, exciting the unbound NeuroSensor 715 at 559 nm provided fluorescence emission at 686 nm. In fluorescence mode, exciting the bound complex at 559 nm upon adding serotonin produced a marked 8.0-fold fluorescence enhancement at […] (FIG. 6 (B)).

[6] = Interaction of NS715 with epinephrine in vitro; type: binding
[7] = tested on: norepinephrine-enriched chromaffin cells; assay: Confocal imaging of norepinephrine-enriched chromaffin cells incubated with NS715; type: cell-based; conditions: NS715 10 μM
Experimental: (§3) NS715 binds to norepinephrine and strongly fluoresces, but not to epinephrine because it is a secondary-amine neurotransmitter. Both populations of cells were incubated with NS715 (10 μM), washed, and subsequently imaged using confocal microscopy. The unbound UV λmax=500 nm and the bound UV λmax=546 nm. The unbound sensor emits at 686 nm and the bound sensor emits at 715 nm. Excitation wavelengths of 458 nm and 633 nm were used to preferentially excite the unbound and bound forms of NS715. Emission for all excitation wavelengths was measured using 650 nm-710 nm bandpass filter.

[8] = Fluorescence/absorbance titration of NS715 with dopamine; type: binding
Experimental: as §1, §2

[9] = tested on: epinephrine-enriched chromaffin cells; assay: Confocal imaging of epinephrine-enriched chromaffin cells incubated with NS715; type: cell-based; conditions: NS715 10 μM
Experimental: as §3

[10] = sensor saturated with primary amine analyte (bound)
[11] = thiophene in place of benzene moiety on NeuroSensor 521 platform
[12] = intensity at saturation from fit
[13] = λex = 559 nm, λem = 780 nm, buffer pH 5.0, error ±10%

`CCN(CC)c1ccc2c(-c3cccs3)c(C=O)c(=O)oc2c1` gave a Stokes shift [1, 10] of 37 nm, a λabs [1, 10] of 502 nm and a λem [1, 10] of 539 nm. The “bathochromic shift in absorbance” value [1, 11] was 10 nm, the “bathochromic shift in fluorescence emission” value [1, 11] was 17 nm and the Stokes shift ([1]; unbound sensor) was 60 nm. The λabs ([1]; unbound sensor) was 462 nm and the λem ([1]; unbound sensor) was 522 nm.
For `CCN(CC)c1ccc2c(-c3ccc(OC)cc3)c(C=O)c(=O)oc2c1` [NS521], the “fluorescence response upon interaction with serotonin” value [2] is given as “fluorescence quenching”.
With `CCN1CCN(CC)c2cc3c(-c4cccs4)c(C=O)c(=O)oc3cc21` [NS715] the fluorescence enhancement ([3]; norepinephrine) was 3.0 fold, the “higher binding constants of catecholamines compared to glutamate” value ([3]; norepinephrine and dopamine on average vs glutamate) was 6.0 fold and the Isat/I0 ([3]; norepinephrine, intensity at saturation from fit) was 3.4. It also gave a Ka ([3]; norepinephrine, λex = 559 nm, λem = 780 nm, buffer pH 5.0, error ±10%) of 129 M⁻¹, a fluorescence enhancement [4] of 3.0 fold and an Isat/I0 [4, 12] of 3.0. For the same compound, the Ka [4, 13] was 22.3 M⁻¹, the “higher binding constant for serotonin compared to glutamate” value ([5]; serotonin vs glutamate, listed as NeuroSensor 715) was 19 fold and 18 fold and the fluorescence enhancement ([5]; serotonin, at 715 nm) was 8.0 fold. It also gave a fluorescence enhancement ([5]; serotonin, excited at 559 nm, measured at 780 nm) of 8.0 fold, an Isat/I0 ([5]; serotonin, fluorescence intensity at saturation from fit to binding isotherm) of 8.0 and a Ka ([5]; serotonin, fluorescence spectroscopy, λex = 559 nm, λem = 780 nm, buffer pH 5.0, error ±10%) of 409 M⁻¹. The “modulation of absorption or fluorescence spectrum upon interaction with epinephrine” value [6] was “no modulation in the absorption or fluorescence spectrum”, the “average fluorescence intensity of norepinephrine-enriched cells relative to epinephrine-enriched cells” value [7] was 15 fold and the “fluorescence when excited at 633 nm” value ([7]; norepinephrine-enriched cells) was “punctate pattern with strong fluorescence”. The average fluorescence intensity ([7]; norepinephrine-enriched cells, 650-710 nm bandpass, n=20) was 12.42±1.75, the fluorescence enhancement [8] was 3.4 fold and the Isat/I0 [8, 12] was 4.0. The Ka [8, 13] was 145 M⁻¹, the “increase of Stokes shift compared to thiophene-based NeuroSensor 521 derivative” value ([1]; both unbound and bound complex) was “over 125 nm” and the Stokes shift [1, 10] was 169 nm. The λabs [1, 10] was 546 nm, the λem [1, 10] was 715 nm and the λabs ([1]; unbound sensor) was 500 nm. For the same compound, the λem ([1]; unbound sensor) was 686 nm, the Stokes shift ([1]; unbound sensor, listed as NeuroSensor 715) was 186 nm and the “fluorescence when excited at 633 nm” value [9] was “marginal fluorescence”. It also gave an average fluorescence intensity ([9]; 650-710 nm bandpass, n=20) of 0.85±0.29.
For `CCN(CC)c1ccc2c(-c3ccccc3)c(C=O)c(=O)oc2c1` [benzene-based NeuroSensor 521 derivative], the Stokes shift [1, 10] was 32 nm, the λabs [1, 10] was 488 nm and the λem [1, 10] was 520 nm. For the same compound, the Stokes shift ([1]; unbound sensor) was 53 nm, the λabs ([1]; unbound sensor) was 452 nm and the λem ([1]; unbound sensor) was 505 nm.
